Data reported in patent US20170266184A1 (priority 2016, published 2017).
Like-named read-outs stand apart in the source and are kept apart here.

What was measured:
[1] = test system: humans; settings: cited from earlier work
[2] = test system: rats; settings: buspirone and apomorphine co-administered to rats; cited from earlier work
[3] = test system: rats
Experimental: This phase started one day after pre-conditioning phase, animals were randomly assigned to six groups, each containing six animals: (i) buspirone 0 mg/kg+saline, (ii) buspirone 0 mg/kg+morphine, (iii) buspirone 1 mg/kg+saline, (iv) buspirone 1 mg/kg+morphine, (v) buspirone 2 mg/kg+saline and (vi) buspirone 2 mg/kg+morphine injected animals. Over next 12 days (day 1 to day 12) animals went through conditioning (one session per day) in which they were confined to either the horizontal or vertical stripe compartment by raising the respective guillotine door. On day 1, 3, 5, 7, 9 and 11 animals of all groups were injected with saline (1 ml/kg) and placed immediately in the assigned ‘Non-Drug’ compartment for 30 min. After which the animals were kept in their home cages. On every other day, i.e. day 2, 4, 6, 8, 10, and 12 control and test animals were injected with saline, buspirone and/or morphine as assigned above. Immediately after injection the animals were placed in the ‘Drug’ compartment for 30 min. The animals picked from the drug compartment were placed back in their home cages.
Motor behavior was also monitored during conditioning phase. Animals confined to a compartment were moving across the compartment. Activity scores were counted as number of cage crossings for 10 min starting 5 min post injection.

[4] = test system: rats; experiment: Conditioned place preference (CPP) test of drug-induced reinforcement; format: in vivo, rat
Experimental: A three compartment conditioned place preference (CPP) apparatus with an unbiased design was used to monitor drug-induced reinforcement. The apparatus was made up of transparent plastic Perspex. The compartments were separated by sliding guillotine doors.
The end (preference) compartments (26×26×26 cm each) provided distinct contexts, with one compartment having black horizontal stripes on side walls, the other compartment had vertical black stripes. […] The experiment was conducted in three distinct phases: pre-conditioning, conditioning and post-conditioning.
An animal introduced in the CPP apparatus from the middle compartment and guillotine doors were raised to open. The animal was allowed to explore the entire apparatus for 10 min. Time spent in each compartment was recorded.
The test was carried out on day 13, one day after the last conditioning session, in a drug free state. Each animal was tested only once. As in the pre-conditioning phase, the guillotine doors were removed and rat was given access to the entire apparatus for 10 min. Time spent in ‘Drug’ assigned compartment was monitored.

[5] = test system: rats; remark: listed apart in the source
Experimental: After post-conditioning the challenge dose of morphine (7.5 mg/kg) was given. The hot plate test was conducted 30 min after challenge dose to measure difference in heat-induced nociception in the six groups. The latency (either jumping or hind-paw licking) and number of licks were monitored for each animal. The temperature of hot plate was kept 52° C. and cutoff time was 30 sec.

[6] = test system: rats; settings: fluoxetine with morphine; cited from earlier work
[7] = test system: rhesus monkeys; settings: fluoxetine with morphine; cited from earlier work
[8] = test system: monkeys; settings: cited from earlier work
[9] = biological target: T1, 5-HT-1A receptor (Rattus norvegicus, UniProt P19327); settings: subcutaneous injection; cited from earlier work
T1 sequence (P19327 1-422): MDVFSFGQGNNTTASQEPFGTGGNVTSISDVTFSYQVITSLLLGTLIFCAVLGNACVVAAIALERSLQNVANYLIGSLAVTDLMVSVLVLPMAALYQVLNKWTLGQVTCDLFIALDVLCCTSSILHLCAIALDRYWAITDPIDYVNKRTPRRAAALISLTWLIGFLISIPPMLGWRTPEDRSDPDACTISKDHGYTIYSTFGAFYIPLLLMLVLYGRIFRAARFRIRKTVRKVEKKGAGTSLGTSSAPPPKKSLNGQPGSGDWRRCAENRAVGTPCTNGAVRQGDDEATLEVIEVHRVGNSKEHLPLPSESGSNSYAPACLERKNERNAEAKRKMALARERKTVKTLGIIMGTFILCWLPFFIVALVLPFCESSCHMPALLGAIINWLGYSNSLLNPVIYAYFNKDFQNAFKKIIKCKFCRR

[10] = biological target: T1, 5-HT-1A receptor; design: host or cells: rat, whole animal (in vivo); settings: rats; cited from earlier work
[11] = all three doses of morphine vs saline treated animals, FIG. 3

## CCNC(C)Cc1cccc(C(F)(F)F)c1 (centres unmarked) [fenfluramine]
[1]
  Analgesic effects of morphine: increase

## O=C1CC2(CCCC2)CC(=O)N1CCCCN1CCN(c2ncccn2)CC1 [buspirone]
[2]
  Addiction to apomorphine: not produced
[3]; animals co-treated with buspirone
  Calculated percentage psychosis like effects of morphine: blocked
[3]; co-administration of 1 mg/kg buspirone, FIG. 2B
  Psychosis like effects of morphine: blocked
[3]; co-administration of 2 mg/kg buspirone, FIG. 2B
  Psychosis like effects of morphine: attenuated
[3]; co-treated with buspirone 1 mg/kg or 2 mg/kg, FIG. 2A
  Tolerance in motor depressant effects of morphine: not produced
[4]; buspirone 1 mg or 2 mg/kg co-administered with morphine 7.5 mg/kg, FIG. 1A
  Morphine-induced increases in post-conditioning time spent in drug paired compartment: significantly attenuates
[4]; buspirone 1 mg or 2 mg/kg co-administered with morphine 7.5 mg/kg, FIG. 1B
  Reinforcing effects of morphine (calculated percentage reinforcement): do not occur
[4]; buspirone co-injected animals
  Reduction of addiction to morphine: more than 90%
[5]; buspirone co-injected animals
  Analgesic effects of morphine: potentiated

## CNCCC(Oc1ccc(C(F)(F)F)cc1)c1ccccc1 (centres unmarked) [fluoxetine]
[6]
  Anti-nociceptive effects of morphine: potentiates
[7]
  Anti-nociceptive effects of morphine: potentiates
[1]
  Analgesic effects of morphine: increase

## CN1CC[C@]23c4c5ccc(O)c4O[C@H]2[C@@H](O)C=C[C@H]3[C@H]1C5 [morphine]
[3]; 1st and 2nd injection of morphine, FIG. 2A
  Motor activity: decrease
[3]; 3rd to 6th administration of morphine, day 6, 8, 10 and 12, FIG. 2A
  Decreases in motor activity (tolerance in motor depressant effect): do not occur
[3]; morphine alone, FIG. 2B
  Psychosis like effects: produced psychosis like effects
[4]; morphine 7.5 mg/kg alone, repeated, FIG. 1A
  Post-conditioning time spent in the drug paired compartment: much higher
[4]; morphine 7.5 mg/kg alone, FIG. 1B
  Calculated percentage reinforcement: reinforcing
[5]; 7.5 mg/kg vs 5 mg/kg morphine, FIG. 3
  Increase in latency time in paw licking, comparison of doses: greater at 7.5 mg/kg than 5 mg/kg
[5]; [11]
  Latency time in paw licking: increase
  Number of licks: reduced
[5]; repeated morphine treated animals, 30 min after 7.5 mg/kg morphine challenge, FIG. 4
  Latency time to first lick: reduced
[5]; repeated morphine treated animals, after morphine challenge, FIG. 4
  Number of licks: higher

## CN(C)CCCN1c2ccccc2CCc2ccc(Cl)cc21 [clomipramine]
[8]
  Anti-nociceptive effects of opioids: enhances

## CCCN(CCC)C1CCc2cccc(O)c2C1 (centres unmarked) [8-OH-DPAT, 8-hydroxy-N,N-dipropyl-2-aminotetralin]
[9]
  Analgesic effect: produces an analgesic effect
[10]
  Anti-nociceptive effects: has anti-nociceptive effects
